Test results: patent US7375124B2, “Use of α-phenylthiocarboxylic and α-phenyloxycarboxylic acids with serum-glucose-lowering and serum-lipid-lowering activity” (Sigma-Tau Industrie Farmaceutiche Riunite S.p.A., priority 2002, dated 2008)

Molecular target: T1, mPPARαLBD/Gal4DBD (Mus musculus, UniProt P23204)
T1 construct: expressed in transfected cells; host or cells: COS-7 (monkey kidney fibroblasts)
T1 sequence (P23204 239-466 limits assumed): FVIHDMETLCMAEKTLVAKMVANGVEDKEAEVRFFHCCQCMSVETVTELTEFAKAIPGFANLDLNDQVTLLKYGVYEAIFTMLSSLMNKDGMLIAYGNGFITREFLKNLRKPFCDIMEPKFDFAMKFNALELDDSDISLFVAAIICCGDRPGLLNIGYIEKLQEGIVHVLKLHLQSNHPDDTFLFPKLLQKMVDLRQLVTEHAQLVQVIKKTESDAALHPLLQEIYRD
Assay: Transactivation assay mediated by mPPARαLBD/Gal4DBD in COS-7 cells (CAT reporter)
Type: cell-based
Summary of the method: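 Test compounds (2, 20, 100 μM) were incubated 48 h at 37 °C with COS-7 cells transiently expressing a Gal4 DBD–mouse PPARα LBD chimera plus a UAS-driven CAT reporter. Reporter activity, read as CAT conversion of [14C]-chloramphenicol, was normalized to pCH110 β-galactosidase; Wy-14,643 (2 μM) served as positive reference.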

Q: What does the source list for `CC(C)(Sc1cccc(OCCc2ccc(Cl)cc2)c1)C(=O)O` [Example 2, 2-[3-[2-(4-chlorophenyl)ethoxy]phenylthio]-2-methylpropanoic acid]?
A: Activation of reporter gene CAT as a percentage of the reference compound (WY-14,643 2 μM = 100%) (2 μM): 69.7%; Activation of reporter gene CAT as a percentage of the reference compound (WY-14,643 2 μM = 100%) (20 μM): 103.6%; Activation of reporter gene CAT as a percentage of the reference compound (WY-14,643 2 μM = 100%) (100 μM): 280.9%
